System: STING pathway
Assay: STING pathway activation in THP1-Dual cells, NFκB pathway SEAP reporter
Format: cell-based
Conditions: Homo sapiens, NFκB pathway reporter (secreted embryonic alkaline phosphatase, QUANTI-Blue, 620 nm), 24-hour or 48-hour assay duration not specified
Experimental: STING pathway activation by the compounds described herein was measured using THP1-Dual™ cells. These cells are THP1 monocytes that have been modified to be reporters for the NFκB pathway (by inducing secreted embryonic alkaline phosphatase (SEAP) expression) and the IRF pathway (by inducing secreted luciferase (LUCIA)). Both of these pathways are activated by STING agonists in these cells.
THP1 Dualtm cells (obtained from Invivogen) are maintained in a cell growth medium that includes Roswell Park Memorial Institute medium (RPMI), 10% fetal calf serum (FCS), 100 U/ml Pen/Strep, 2 mM L-glut, 10 mM Hepes, and 1 mM sodium pyruvate. Prior to the assay, the cells were transferred to an assay medium that includes RPMI, 5% FCS, 100 U/ml Pen/Strep, 2 mM L-glut, 10 mM Hepes, and 1 mM sodium pyruvate. Cells were then counted and evaluated for viability by trypan blue exclusion assay.
The compounds of the present invention can be assayed using, for example, the following procedure. Compounds were dissolved in water or DMSO depending, for example, on their solubility in water or DMSO. […]
To carry out the secreted embryonic alkaline phosphatase reporter, 10 μL of cell supernatant was mixed with 90 μL of QUANTI-Blue in a flat-bottom 384 well plate. […] SEAP activity was measured using a spectrophotometer set at 620 nm. […] Luminescence of the wells was then measured.

| SMILES | IC50 |
| --- | --- |
| Nc1ncnc2c1ncn2[C@@H]1O[C@@H]2CNC(=S)N[C@H]3[C@@H](O)[C@H](n4cnc5c(N)ncnc54)O[C@@H]3CNC(=S)N[C@H]2[C@H]1O [Compound 30, (2R,3R,3aS,7aR,9R,10R,10aS,14aR)-2,9-bis(6-amino-9H-purin-9-yl)-3,10-dihydroxydodecahydrodifuro[3,2-d:3′,2′-j][,3,7,9]tetraazacyclododecine-5,12(4H,6H)-dithione] | 25.4 µM |
| Nc1ncnc2c1ncn2[C@@H]1O[C@@H]2CNC(=O)N[C@H]3[C@@H](O)[C@H](n4cnc5c(N)ncnc54)O[C@@H]3CNC(=O)N[C@H]2[C@H]1O [Compound 31, (2R,3R,3aS,7aR,9R,10R,10aS,14aR)-2,9-bis(6-amino-9H-purin-9-yl)-3,10-dihydroxydodecahydrodifuro[3,2-d:3′,2′-j][1,3,7,9]tetraazacyclododecine-5, 12(4H,6H)-dione] | 22.2 µM |

Reference: patent US20190345191A1, “CYCLIC DINUCLEOTIDE ANALOGS FOR TREATING CONDITIONS ASSOCIATED WITH STING (STIMULATOR OF INTERFERON GENES) ACTIVITY” (Innate Tumor Immunity, Inc., priority 2016, published 2019)
